Results from patent US4772586A, “Novel derivatives of arginine vasopressin antagonists” (Medical College of Ohio, priority 1986, dated 1988).
*1 amine or outer side, *2 acyl side, *3 side chain or, on linkers, in order; H or OH if unused. Where a SMILES comes first, the peptide text is derived from it. Bridges are numbered along the chain shown (N, C = ends). [ ]: non-standard residue; d: D form. The star is where a group is joined. Ethylenediamine = C(CN[*:2])N[*:1]; X1 = O=C(CC1(S[*:2])CCCCC1)[*:1]; NH(CH2)4NH2 = NCCCCN*; βAla = NCCC(=O)O; Sar = CNCC(=O)O

Assays:
[1] = test system: vasopressor response to arginine vasopressin; experiment: Antagonism to the vasopressor response (Anti-VP); type: in vivo; conditions: estimated in vivo pA2; for Anti-VP pA2: Table 1
Experimental: Antagonism to the vasopressor response was estimated in accordance with Dyckes et al., J. Med. Chem., vol. 17 (1974) at 969. The values are expressed as pA2 values, defined as in Schild et al., Br. J. Pharmacol., vol. 2 (1947) at 189.
(§1) Antagonistic potencies were determined and expressed as "effective doses" and pA2 values. The "effective dose" is defined as the dose (in nanomoles per kilogram) that reduces the response seen from 2x units of agonist injected 20 min after the dose of antagonist to the response with 1x units of agonist. Estimated in vivo "pA2 " values represent the negative logarithms of the effective doses, divided by the estimated volume of distribution (67 ml/kg).

[2] = test system: antidiuretic response to arginine vasopressin; experiment: Antagonism of the antidiuretic response to arginine vasopressin (Anti-ADH); type: in vivo, rats; conditions: for Anti-ADH Potency pA2: estimated in vivo pA2; for Anti-ADH pA2: Table 1, estimated in vivo pA2 = negative log of effective dose divided by volume of distribution (67 ml/kg)
Experimental: Activity as antidiuretic agonists was determined by intravenous injection of the compounds being evaluated in ethanol-anesthesized water-loaded rats in accordance with Sawyer, Endocrinology, vol. 63 (1958) at 694. Antagonism of the antidiuretic response to subsequent injections of arginine vasopressin was tested by the method of Sawyer et al., Science, vol. 212 (1981) at 49.
as §1

In the case of `CC[C@H](C)[C@@H]1NC(=O)[C@H](Cc2ccccc2)NC(=O)[C@@H](Cc2ccccc2)NC(=O)CC2(CCCCC2)SSC[C@@H](C(=O)N2CCC[C@H]2C(=O)N[C@@H](CCCNC(=N)N)C(=O)N[C@@H](Cc2ccccc2)C(N)=O)NC(=O)[C@H](CC(N)=O)NC1=O` [Phe(NH2), [1-(beta-mercapto-beta,beta-cyclopentamethylenepropionic acid), 2-D-phenylalanine, 4-isoleucine, 9-phenylalaninamide]-arginine vasopressin] ([dF]FINCPRF-NH2; linker N-5 via X1), the “Anti-VP Potency pA2” value ([1]; Table 2) is reported as 7.28 ± 0.11 and the “Anti-ADH Potency pA2” value ([2]; Table 2) is reported as 7.69 ± 0.09.
With `CC[C@H](C)[C@@H]1NC(=O)[C@H](Cc2ccccc2)NC(=O)[C@@H](Cc2ccc(O)cc2)NC(=O)CC2(CCCCC2)SSC[C@@H](C(=O)N2CCC[C@H]2C(=O)N[C@@H](CCCNC(=N)N)C(=O)NCCN)NC(=O)[C@H](CC(N)=O)NC1=O` [[1-beta-mercapto-beta,beta-cyclopentamethylenepropionic acid, 2-D-tyrosine, 4-isoleucine, 8-arginine-N-(beta-amino)ethylamide, 9-desglycinamide] vasopressin] ([dY]FINCPR-Ethylenediamine; linker N-5 via X1) the “Anti-VP Potency pA2” value ([1]; Table 4, ^+ = mixed) was 7.93 ± 0.08 and the “Anti-ADH Potency pA2” value ([2]; Table 4) was 7.81 ± 0.06.
`CCOc1ccc(C[C@H]2NC(=O)CC3(CCCCC3)SSC[C@@H](C(=O)N3CCC[C@H]3C(=O)N[C@@H](CCCNC(=N)N)C(=O)NCC(=O)NCCN)NC(=O)[C@H](CC(N)=O)NC(=O)[C@H]([C@@H](C)CC)NC(=O)[C@H](Cc3ccccc3)NC2=O)cc1` [[1-(beta-mercapto-beta,beta-cyclopentamethylenepropionic acid), 2-D-(O-ethyl)tyrosine, 4-isoleucine, 9-glycine-N-(beta-amino)ethylamide]-arginine vasopressin] ([dY](Et)FINCPRG-Ethylenediamine; linker N-5 via X1) was tested, and the “Anti-VP Potency pA2” value ([1]; Table 4, ^+ = mixed) was 8.07 ± 0.03 and the “Anti-ADH Potency pA2” value ([2]; Table 4) was 7.86 ± 0.04.
With `CCOc1ccc(C[C@@H]2NC(=O)CC3(CCCCC3)SSC[C@@H](C(=O)N3CCC[C@H]3C(=O)N[C@@H](CCCNC(=N)N)C(N)=O)NC(=O)[C@H](CC(N)=O)NC(=O)[C@H](C(C)C)NC(=O)[C@H](Cc3ccccc3)NC2=O)cc1` [desGly^9 d(CH2)5 [Tyr(Et)^2]VAVP, [1-(beta-mercapto-beta,beta-cyclopentamethylenepropionic acid), 2-(O-ethyl)tyrosine, 4-valine, 9-desglycine]-arginine vasopressin] (Y(Et)FVNCPR-NH2; linker N-5 via X1) the “Anti-VP pA2” value [1] was 8.18 ± 0.02 and the “Anti-ADH pA2” value [2] was 7.89 ± 0.09.
With `CNC(=O)CN(C)C(=O)[C@H](CCCNC(=N)N)NC(=O)[C@@H]1CCCN1C(=O)[C@@H]1CSSC2(CCCCC2)CC(=O)N[C@@H](Cc2ccc(OC)cc2)C(=O)N[C@@H](Cc2ccccc2)C(=O)N[C@@H](CCC(N)=O)C(=O)N[C@@H](CC(N)=O)C(=O)N1` [d(CH2)5 [Tyr(Me)^2, Sar(NHMe)^9]AVP, [1-(beta-mercapto-beta,beta-cyclopentamethylenepropionic acid), 2-O-methyltyrosine, 9-sarcosine-N-methylamide]-arginine vasopressin] (Y(Me)FQNCPR[Sar]-NHMe; linker N-5 via X1) the “Anti-VP Potency pA2” value ([1]; Table 4, ^+ = mixed) was 8.31 ± 0.03 and the “Anti-ADH Potency pA2” value ([2]; Table 4) was ~ 5.5.
With `CCOc1ccc(C[C@H]2NC(=O)CC3(CCCCC3)SSC[C@@H](C(=O)N3CCC[C@H]3C(=O)N[C@@H](CCCNC(=N)N)C(=O)NCC(=O)NC)NC(=O)[C@H](CC(N)=O)NC(=O)[C@H](C(C)C)NC(=O)[C@H](Cc3ccccc3)NC2=O)cc1` [[1-(beta-mercapto-beta,beta-cyclopentamethylenepropionic acid), 2-D-(O-ethyl)tyrosine, 4-valine, 9-glycine-N-methylamide]-arginine vasopressin] ([dY](Et)FVNCPRG-NHMe; linker N-5 via X1) the “Anti-VP Potency pA2” value ([1]; Table 4, ^+ = mixed) was 7.71 ± 0.04 and the “Anti-ADH Potency pA2” value ([2]; Table 4) was 7.58 ± 0.06.
With `CCOc1ccc(C[C@H]2NC(=O)CC3(CCCCC3)SSC[C@@H](C(=O)N3CCC[C@H]3C(=O)N[C@@H](CCCNC(=N)N)C(=O)NCCC(=O)NC)NC(=O)[C@H](CC(N)=O)NC(=O)[C@H](C(C)C)NC(=O)[C@H](Cc3ccccc3)NC2=O)cc1` [1-(beta-mercapto-beta,beta-cyclopentamethyleneproprionic acid), 2-D-(O-ethyl)tyrosine, 4-valine, 9-beta-alanine-N-methylamide]-arginine vasopressin] ([dY](Et)FVNCPR[βAla]-NHMe; linker N-5 via X1) the “Anti-VP Potency pA2” value ([1]; Table 4, ^+ = mixed) was 7.77 ± 0.05 and the “Anti-ADH Potency pA2” value ([2]; Table 4) was 7.61 ± 0.02.
With `CC[C@H](C)[C@@H]1NC(=O)[C@H](Cc2ccccc2)NC(=O)[C@@H](Cc2ccccc2)NC(=O)CC2(CCCCC2)SSC[C@@H](C(=O)N2CCC[C@H]2C(=O)N[C@@H](CCCNC(=N)N)C(=O)NCCCCN)NC(=O)[C@H](CC(N)=O)NC1=O` [[1-(beta-mercapto-beta,beta-cyclopentamethylenepropionic acid), 2-D-phenylalanine, 4-isoleucine, 8-arginine-N-(delta-amino)butylamide, 9-desglycinamide] vasopressin] ([dF]FINCPR-{NH(CH2)4NH2}; linker N-5 via X1) the “Anti-VP Potency pA2” value ([1]; Table 4, ^+ = mixed) was 7.61 ± 0.08 and the “Anti-ADH Potency pA2” value ([2]; Table 4) was 8.11 ± 0.03.
For `CC[C@H](C)[C@@H]1NC(=O)[C@H](Cc2ccccc2)NC(=O)[C@@H](Cc2ccccc2)NC(=O)CC2(CCCCC2)SSC[C@@H](C(=O)N2CCC[C@H]2C(=O)N[C@@H](CCCNC(=N)N)C(=O)O)NC(=O)[C@H](CC(N)=O)NC1=O` [[1-(beta-mercapto-beta,beta-cyclopentamethylenepropionic acid), 2-D-phenylalanine, 4-isoleucine, 9-desglycinamide]-arginine vasopressin] ([dF]FINCPR-OH; linker N-5 via X1), the “Anti-VP pA2” value [1] was 6.74 ± 0.08, the “Anti-VP Potency pA2” value ([1]; Table 4, ^+ = mixed) was 7.84 ± 0.03 and the “Anti-ADH pA2” value [2] was 7.20 ± 0.10. For the same molecule, the “Anti-ADH Potency pA2” value ([2]; Table 4) was 8.05 ± 0.09.
With `CC[C@H](C)[C@@H]1NC(=O)[C@H](Cc2ccccc2)NC(=O)[C@@H](Cc2ccccc2)NC(=O)CC2(CCCCC2)SSC[C@@H](C(=O)N2CCC[C@H]2C(=O)N[C@@H](CCCNC(=N)N)C(=O)N[C@@H](CO)C(N)=O)NC(=O)[C@H](CC(N)=O)NC1=O` [Ser(NH2), [1-(beta-mercapto-beta,beta-cyclopentamethylenepropionic acid), 2-D-phenylalanine, 4-isoleucine, 9-serinamide]-arginine vasopressin] ([dF]FINCPRS-NH2; linker N-5 via X1) the “Anti-VP Potency pA2” value ([1]; Table 2) was 8.10 ± 0.08 and the “Anti-ADH Potency pA2” value ([2]; Table 2) was 8.10 ± 0.07.
With `CC[C@H](C)[C@@H]1NC(=O)[C@H](Cc2ccccc2)NC(=O)[C@@H](Cc2ccccc2)NC(=O)CC2(CCCCC2)SSC[C@@H](C(=O)N2CCC[C@H]2C(=O)N[C@@H](CCCNC(=N)N)C(=O)N2CCC[C@H]2C(N)=O)NC(=O)[C@H](CC(N)=O)NC1=O` [Pro(NH2), [1-(beta-mercapto-beta,beta-cyclopentamethylenepropionic acid), 2-D-phenylalanine, 4-isoleucine, 9-prolinamide]-arginine vasopressin] ([dF]FINCPRP-NH2; linker N-5 via X1) the “Anti-VP Potency pA2” value ([1]; Table 2) was 7.12 ± 0.11 and the “Anti-ADH Potency pA2” value ([2]; Table 2) was 7.19 ± 0.04.
